{"source": "paper PMC6544628", "about": "“Plasmodium pseudo-Tyrosine Kinase-like binds PP1 and SERA5 and is exported to host erythrocytes” (Scientific Reports, 2019)", "target": "T1, pTKL_KD_WT (PfpTKL kinase domain) (Plasmodium falciparum, UniProt Q8IIT5)", "T1 construct": "gene pTKL", "T1 sequence (Q8IIT5 1098-1501)": "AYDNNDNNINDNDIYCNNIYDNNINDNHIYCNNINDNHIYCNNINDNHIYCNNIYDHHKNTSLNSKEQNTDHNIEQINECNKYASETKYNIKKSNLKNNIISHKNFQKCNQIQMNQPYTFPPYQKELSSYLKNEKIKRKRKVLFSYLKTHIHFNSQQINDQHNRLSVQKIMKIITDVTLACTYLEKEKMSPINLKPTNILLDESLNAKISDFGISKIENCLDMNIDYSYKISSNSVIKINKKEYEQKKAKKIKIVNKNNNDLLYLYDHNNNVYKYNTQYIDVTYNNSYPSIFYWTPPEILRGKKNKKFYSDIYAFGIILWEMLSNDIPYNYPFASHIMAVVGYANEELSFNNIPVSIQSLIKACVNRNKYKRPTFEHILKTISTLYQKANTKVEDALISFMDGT", "details": "labelled compound (ATP immobilised on agarose); protein dialyzed against PBS with 1 mM DTT and 1 mM EDTA", "data": [{"smiles": "Nc1ncnc2c1ncn2[C@@H]1O[C@H](COP(=O)(O)OP(=O)(O)OP(=O)(O)O)[C@@H](O)[C@H]1O", "note": "[ATP]", "values": [{"measurement": "ATP-agarose bead pull-down, anti-His6 western blot", "value": "The PfpTKL pseudo-KD was able to bind ATP but did not display any kinase activity"}]}]}
